Like-named read-outs stand apart in the source and are kept apart here. Square brackets hold non-standard residues; d marks the D form. Ends that are not written are not given here. Peptide text beside a SMILES is read from it. Oic = O=C(O)[C@@H]1C[C@@H]2CCCC[C@@H]2N1; Hyp = O=C(O)[C@@H]1C[C@@H](O)CN1; dTic = O=C(O)[C@H]1Cc2ccccc2CN1; 2Thi = N[C@@H](Cc1cccs1)C(=O)O
Assays:
MDA-MB-231 cells [1] = experiment: MTT cytotoxicity (cell viability) assay; type: cell-based, human; settings: for cytotoxic effect: at a concentration of 100 µM
Description: (§1) Cell proliferation assay on MDA-MB-231 cells was determined with colorimetric MTT as we described. Briefly, cells were seeded in a 96 wells plate at 2,000 cells/well in DMEM media supplemented with 10% FBS for 24h at 37°C. Cells were then incubated with and without the B2RAs at the indicated concentrations for the time shown. At the end of treatment period, MTT (0.25 mg/ml) was added to the cells and incubated for 1h30 at 37°C. Thereafter, the cell medium was removed, the formazan product solubilized in acidified isopropanol (100 µl of 1N HCl/anhydrous isopropanol 1:25) and the absorbance determined at 570 nm with an ELISA microplate reader (Spectra Max Plus, Molecular Devices, Sunnyvale, CA). For assessing the cytotoxicity of B2RAs and chemotherapeutic agents (carmustine, doxorubicin, carboplatin, temozolomide and paclitaxel), cells were grown to confluency in multi-well plates and exposed to starving media (DMEM without FBS) for 24h before beginning of the antagonist treatment. Cells were then incubated with MTT and treated exactly as described above. Cell viability was expressed as a percentage of optical density (OD) values obtained upon treatment relative to control.

MDA-MB-231 cells [2] = experiment: Anchorage-dependent clonogenic assay; type: cell-based, human; settings: for colony formation (antagonist effect): 1 to 100 µM (FR173657 up to 25 µM), 10-14 days
Description: MDA-MB-231 cells were plated at 200 cells/well in a six-well dish in 2 ml DMEM medium containing 10% FBS. […] After 10 to 14 days, colonies were fixed and stained with 0.5% methylene blue in 50% ethanol. Excess of staining solution was removed carefully with tap water and the plates were dried overnight. Colony counting and densitometric analyses (to measure total colony numbers and surface areas) were performed using the Image Pro Plus 5.1 software.

MDA-MB-231 cells [3] = experiment: Cellular incorporation of B2RAs by LC-MS/MS; settings: 2.5 µM antagonist, 37°C
Description: Permeability of MDA-MB-231 cells to B2RAs was evaluated by either confocal microscopy or LC-MS/MS analyses. […] Mass spectrometry. […] At the end of treatments, cells underwent an acid wash to facilitate the release of surface bound ligands. Cell contents were released from hypotonic lysis using a 40:60 mixture of 15 mM Tris-HCl pH 7.4 / methanol. Cell lysates were next sonicated and subjected to protein precipitation following addition of 0.1% v/v formic acid. Precipitated proteins were removed by centrifugation and supernatants were concentrated using a Speedvac centrifugal evaporator. The sample was subjected to quantification using LC-MS/MS on a triple quadrupole mass spectrometer (Agilent G6410B). A calibration curve made from nine different concentrations of the reference compounds dissolved in suitable HPLC mobile phase solvents, was used to estimate antagonist intracellular content in each sample. The limit of quantification was 75 fmol (1 nM/75 µl).

MDA-MB-231 cells [4] = experiment: Drug-drug synergy experiments (MTT, combination index); type: cell-based, human; settings: IC25 ratios, 72h, CalcuSyn
Description: Interactions (synergy, additive, antagonistic activities) between CP-B2RAs (FR173657 and NG68) and chemotherapeutic drugs (doxorubicin and paclitaxel) were evaluated using MTT standard assays. Twenty-four hours after seeding, cells were treated with CP-B2RAs, the other testing drug, or in combination. For combination testing, CP-B2RAs or the other testing drugs were added to plate in triplicate wells in ratios of IC25 (IC25A: IC25B), and cells are incubated in drug-treated medium for 72h and cell viability determined by MTT. Synergy was determined by calculating combination index (CI) value with the formula CI = (CA,X / ICx,A) + (CB,X / ICx,B), where CA,X and CB,X are concentrations of drug A and drug B used in combination to achieve x% drug effect. ICx,A and ICx,B are concentrations for single agents to achieve the same effect. A CI of less than, equal to, and more than 1 indicates synergy, additivity, and antagonism, respectively.

MDA-MB-231 cells [5] = experiment: PI staining cell cycle analysis by flow cytometry; type: cell-based, human; settings: 24 h treatment; HOE 140 up to 100 μM
Description: MDA-MB-231 were plated at 500,000/plate in 10 cm plates containing medium (10% FBS/DMEM), and allowed to adhere for about 18 h. Thereafter, cells were serum-starved and treated with and without the B2RAs at the indicated concentrations for 24 h. At the end of treatments, cells were harvested, rinsed and fixed with ice cold ethanol 95%, for 2 h at 4°C. Fixed cells were rehydrated with 800 µl PBS for 30 min, and then washed again with PBS to remove all traces of ethanol. Cells were treated with RNase for 30 min prior to staining. PI was added to cell suspension at a concentration of 15 µg/ml and incubated overnight at 4°C. PI staining was assessed by flow cytometry using a FACSCanto II flow cytometer (BD Biosciences).

[6] = Distribution coefficient n-octanol/PBS pH 7.4, shake flask
Description: Equal volumes of octanol and PBS (137 mM NaCl, 2.7 mM KCl, 10 mM Na2HPO4, 2 mM KH2PO4, pH 7.4), were mixed and allowed to equilibrate for 24h. The layers were then separated and stored at 4°C. At testing, the compounds (200 µM) was added to 200 µl of aqueous phase and mixed with an equal volume of octanol by vortexing for 2 min. The octanol/buffer solution was centrifuged for 5 min at 1000 x g. After separation into aqueous and octanol phases, compound content of the aqueous and octanol phases was quantified by RP-HPLC (Agilent1100 series). […] All octanol/buffer distribution studies were performed in duplicate. The octanol/buffer coefficient was calculated as the ratio of octanol layer to the buffer layer.

MDA-MB-231 cells [7] = experiment: Annexin V/PI apoptosis and beta-galactosidase senescence assays; type: cell-based, human
Description: The effect of B2RAs on cellular senescence was assessed using the Senescence β-Galactosidase Staining Kit (Cell Signaling). MDA-MB-231 cells were plated at 500 000 cells/well in 6-well plates, and serum-starved right before the beginning of treatments. Cells were treated with and without the B2RAs at the indicated concentrations for 72 h. At the end of treatment, surviving cells were fixed with 2% formaldehyde, 0.2% glutaraldehyde for 15 min at room temperature. Fixed cells were then washed and stained with fresh senescence-associated β-galactosidase stain solution (sodium phosphate buffer, pH 6.0, containing 1mg of X-gal (5-bromo-4-chloro-3-indolyl-β-d-galactopyranoside)/ml 40 mM citric acid, 5 mM potassium ferrocyanide, 5 mM potassium ferricyanide, 150 mM NaCl, 2 mM MgCl2) at 37°C. Staining was detected by light microscopy. As a positive control for senescence, we serum starved porcine cerebral microvascular endothelial cells (pCMVEC) (kindly provided by S Chemtob) for 48 h.
MDA-MB-231 and COS-1 cells were plated at 500,000/well in 6-well plates containing medium (10% FBS/DMEM), and allowed to adhere for about 18 h. On the next day, cells were serum-starved and then treated with and without the B2RAs at the indicated concentrations for 24 h. To assess induction of apoptosis due to treatment, we used the Annexin-V-FLUOS Staining kit (Roche) according to manufacturer’s specifications. Briefly, at the end of treatments, cells were harvested, rinsed and incubated in 100 µl of Annexin-V-FLUOS labeling solution (containing 2 µl of Annexin-V-Fluos reagent and 1 µl of PI (15 µg/ml)) for 15 min at room temperature. Cells were analyzed on a FACSCanto II flow cytometer (BD Biosciences). Early stage apoptosis was measured using annexin V-Fluos (RocheMolecular Biochemicals) in conjunction with PI (Sigma) to distinguish among early apoptosis and late apoptosis/necrosis. Bar diagram showing the distribution of early, late/necrotic cell populations.

MDA-MB-231 cells [8] = experiment: MTT proliferation assay; type: cell-based, human; settings: B2R shRNA knockdown MDA-MB-231 cells vs scrambled shRNA
Description: as §1

MDA-MB-231 cells [9] = experiment: Western blot of cell cycle, apoptosis and p38 proteins; type: cell-based, human
Description: For western blot analysis, appropriate amount of cell lysates or membrane and nuclear fractions (25–50 µg protein) were denatured, resolved on 9–12% SDS–PAGE and electrotransferred onto PVDF membranes. Blots were blocked using 5% nonfat dry milk and probed using appropriate primary antibodies in blocking buffer overnight at 4°C.

[10] = Homo sapiens, MDA-MB-231, MTT assay after 72h drug exposure, means ± s.e.m., n = 6 to 8, read-out: IC50 values (cytocidal activity)
[11] = 24h treatment, whole-cell lysates

## COc1cccc2c1C(=O)c1c(O)c3c(c(O)c1C2=O)C[C@@](O)(C(=O)CO)C[C@@H]3O[C@H]1C[C@H](N)[C@H](O)[C@H](C)O1 [Adriamycin (doxorubicin), doxorubicin]
MDA-MB-231 cells [1]; [10]
  IC50: 2 ± 1 µM

## O=NN(CCCl)C(=O)NCCCl [BCNU (carmustine), carmustine]
MDA-MB-231 cells [1]; [10]
  IC50: 62 ± 1 µM

## N.N.O=C([O-])C1(C(=O)[O-])CCC1.[Pt+2] [Carboplatin]
MDA-MB-231 cells [1]; MTT assay after 72h drug exposure, means ± s.e.m., n = 6 to 8, read-out: IC50 values (cytocidal activity)
  IC50: > 100 µM
MDA-MB-231 cells [1]
  cytotoxic effect: did not show significant cytotoxic effect

## C[C@H](CCC(=O)N[C@H](CCCNC(=N)N)C(=O)N[C@@H](CCCNC(=N)N)C(=O)N1CCC[C@H]1C(=O)N1C[C@H](O)C[C@H]1C(=O)NCC(=O)N[C@@H](Cc1cccs1)C(=O)N[C@@H](CO)C(=O)N1Cc2ccccc2C[C@@H]1C(=O)N1[C@H](C(=O)N[C@@H](CCCNC(=N)N)C(=O)O)C[C@@H]2CCCC[C@@H]21)[C@H]1CC[C@H]2[C@@H]3[C@H](O)C[C@@H]4C[C@H](O)CC[C@]4(C)[C@H]3C[C@H](O)[C@]12C [Cholic-HOE 140 (NG134)]
MDA-MB-231 cells [2]
  colony formation (antagonist effect): concentration-responsive clonal repression
MDA-MB-231 cells [1]; 72 h
  IC50: > 100 µM
MDA-MB-231 cells [3]; 15 min
  Cellular incorporation: 13 pmol/10^6 cells
MDA-MB-231 cells [3]; 4 h
  Cellular incorporation: 22 pmol/10^6 cells

## N=C(N)NCCC[C@H](NC(=O)[C@@H]1C[C@@H]2CCCC[C@@H]2N1C(=O)[C@H]1Cc2ccccc2CN1C(=O)[C@H](CO)NC(=O)[C@H](Cc1cccs1)NC(=O)CNC(=O)[C@@H]1C[C@@H](O)CN1C(=O)[C@@H]1CCCN1C(=O)[C@H](CCCNC(=N)N)NC(=O)[C@@H](CCCNC(=N)N)NC(=O)CNC(=O)CNC(=O)CNC(=O)[C@@H](CCCNC(=N)N)NC(=O)[C@@H](CCCNC(=N)N)NC(=O)[C@@H](CCCNC(=N)N)NC(=O)[C@@H](CCC(N)=O)NC(=O)[C@@H](CCCNC(=N)N)NC(=O)[C@@H](CCCNC(=N)N)NC(=O)[C@@H](CCCCN)NC(=O)[C@@H](CCCCN)NC(=O)[C@@H](CCCNC(=N)N)NC(=O)CN)C(=O)O [D-Tat-HOE 140 (NG68)] (H-G[dR][dK][dK][dR][dR][dQ][dR][dR][dR]GGG[dR]RP[Hyp]G[2Thi]S[dTic][Oic]R-OH; N-terminus and C-terminus assumed)
MDA-MB-231 cells [2]
  colony formation (antagonist effect): concentration-responsive clonal repression
MDA-MB-231 cells [4]; combination with doxorubicin
  combination index (CI): below 1
MDA-MB-231 cells [4]; combination with paclitaxel
  combination index (CI): ~1
MDA-MB-231 cells [5]
  cell cycle distribution: tend to induce G0/G1 cell cycle arrest
[6]; pH 7.4, Distribution coefficient log D, n-octanol/PBS (pH 7.4), shake flask, RP-HPLC quantification
  logD: -3.02
MDA-MB-231 cells [7]; Annexin V and active caspase-3 positivity 24h, β-galactosidase 72h
  induction of apoptosis / senescence: underwent apoptosis, but not senescence
MDA-MB-231 cells [3]; 15 min
  Cellular incorporation: 5 pmol/10^6 cells
MDA-MB-231 cells [3]; 4 h
  Cellular incorporation: 14 pmol/10^6 cells
MDA-MB-231 cells [8]
  cytostatic activity after B2R downregulation: significantly attenuated
MDA-MB-231 cells [9]; [11]
  expression of BAD and p27Kip1: increased expression
  levels of MAPK and cyclin A: decreased the levels of MAPK and cyclin A
MDA-MB-231 cells [9]; over time
  phosphorylation of p38: significantly increased the phosphorylation

## NC(N)=NCCC[C@@H](N)C(=O)N[C@@H](CCCN=C(N)N)C(=O)N1CCC[C@H]1C(=O)N1C[C@H](O)C[C@H]1C(=O)NCC(=O)N[C@@H](Cc1cccs1)C(=O)N[C@@H](CO)C(=O)N1Cc2ccccc2C[C@@H]1C(=O)N1[C@H](C(=O)N[C@@H](CCCN=C(N)N)C(=O)O)C[C@@H]2CCCC[C@@H]21 [HOE 140]
MDA-MB-231 cells [1]; 72 h
  IC50: > 100 µM
[6]; pH 7.4
  logD: -3.06
MDA-MB-231 cells [3]; 15 min
  Cellular incorporation: 0 pmol/10^6 cells
MDA-MB-231 cells [3]; 4 h
  Cellular incorporation: 0 pmol/10^6 cells
MDA-MB-231 cells [3]; 24 h
  Cellular incorporation: 0 pmol/10^6 cells

## CC(=O)O[C@H]1C(=O)[C@@]2(C)[C@H]([C@H](OC(=O)c3ccccc3)[C@]3(O)C[C@H](OC(=O)[C@H](O)[C@@H](NC(=O)c4ccccc4)c4ccccc4)C(C)=C1C3(C)C)[C@]1(OC(C)=O)CO[C@@H]1C[C@@H]2O [Paclitaxel (Taxol), Paclitaxel]
MDA-MB-231 cells [1]; [10]
  IC50: 10 ± 1 µM

## C[S+]([O-])c1ccc(-c2nc(-c3ccncc3)c(-c3ccc(F)cc3)[nH]2)cc1 (stereo not drawn) [SB203580]
MDA-MB-231 cells [2]; 10 µM, 14 days
  clonogenicity, inhibitor alone: had no effect

## Cn1nnc2c(C(N)=O)ncn2c1=O [Temozolomide (Temodar), Temozolomide]
MDA-MB-231 cells [1]; [10]
  IC50: > 100 µM
MDA-MB-231 cells [1]
  cytotoxic effect: did not show significant cytotoxic effect

## DTat: vector alone; modified HIV-1 Tat peptide sequence GRKKRRQRRR in D-configuration (G[dR][dK][dK][dR][dR][dQ][dR][dR][dR])
MDA-MB-231 cells [7]; up to 100 μM, in any of the above assays
  intrinsic activity of vector alone: did not exhibit intrinsic activity

From publication PMC5839409, “Targeting intracellular B2 receptors using novel cell-penetrating antagonists to arrest growth and induce apoptosis in human triple-negative breast cancer” (Oncotarget, 2018)
